Data as given in patent US6528496B1, “Compositions treating, preventing or reducing elevated metabolic levels” (priority 1992, dated 2003).
“Also recorded” adds a separate entry of the source.

Tests used:
serum MMA and HC [1] = assay: Parenteral B12 treatment of geriatric nursing home patients with serum B12<300 pg/ml, response of serum MMA and HC (Example 4); format: in vivo, human
Description: A study was conducted with 212 elderly nursing home patients to determine serum B12, folate, MMA, and HC levels (Table 3). The significance of the results shown in Table 3 marked with “**” are as described for Table 2 (Example 3). The control group consisted of 100 subjects between the ages of 17-65 years.

serum MMA and HC [2] = assay: Parenteral B12 treatment of geriatric outpatients with low and low/normal serum B12, response of serum MMA and HC (Example 3); format: in vivo, human; details: weekly injections of 1.0 mg B12
Description: A study was conducted with 152 elderly outpatient subjects to measure the prevalence of B12 deficiency in geriatric outpatients as determined by both low serum B12 levels and elevations of MMA and HC, and to determine the response to B12 treatment. Blood samples were obtained on 152 consecutive geriatric outpatients, ages 65-99. Control values were determined from 100 subjects, ages 17-65. The significance of the results marked as “**” in Table 2 are as follows: B12 levels of<200 pg/ml; folate<3.8 ng/ml; homocysteine>16.2 uM; MMA>271 nM; CT>342 nM; and 2-MCA>228 nM. Serum MMA, HC, CT, and 2-MCA levels were measured as described in Example 1. Serum B12 and folate were measured as described in Example 1 using a Corning Immophase kit (CIBA-Corning, Medfield, Mass.) with the normal range defined as 200-800 pg/ml for B12 and 3.8 ng/ml for folate. After evaluation, patients received weekly parenteral cyanocobalamin injections (1,000 ug IM) for 8 weeks, followed by monthly injections. Repeat laboratory and clinical assessments were administered at 8 weeks and at 6 months.
Patients with low and low/normal serum B12 levels were treated with weekly injections of 1.0 mg B12. […] It appears that the true prevalence of previously unrecognized B12 deficiency in this elderly population was at least 14.5%.

[3] = 2.0 mg oral dose, in the absence of intrinsic factor; cited from earlier work
[4] = parenteral 1 mg per week for 8 weeks, nursing home patients with serum B12<300 pg/ml

cyanocobalamin [B12]
effect on elevated serum HC levels (FIG. 10) (serum MMA and HC [1]; [4]): fall to or towards normal
effect on elevated serum MMA levels (FIG. 9) (serum MMA and HC [1]; [4]): fall to or towards normal
response of elevated metabolite levels to B12 treatment (serum MMA and HC [1]; some of the nursing home patients with elevated metabolite levels): did not fully respond
effect on elevated metabolite levels (serum MMA and HC, FIGS. 4 and 5) (serum MMA and HC [2]): fall to or towards normal; also recorded: did not fully respond
fraction of oral dose absorbed by diffusion [3]: approximately 1%
